Test results: patent publication US20180078576A1, “SULPHATED XYLANS FOR TREATMENT OR PROPHYLAXIS OF RESPIRATORY DISEASES” (Paradigm Biopharmaceuticals Limited, priority 2007, published 2018)

Tests used:
human GM-CSF = human GM-CSF (Homo sapiens, UniProt P04141); test: GM-CSF dependent TF-1.8 cell proliferation; type: cell-based; conditions: 10 μg/ml and 1 μg/ml, GM-CSF 0.025 ng/ml, FIG. 7
Method: TF-1.8 cells were derived from TF-1 cells that respond to human GM-CSF (granulocyte-macrophage colony stimulating factor). TF-1.8 cells retained their responsiveness to GM-CSF. Routinely 2.5×10^4 cells are added to microplate wells that contain either no GM-CSF (negative control) or various dilutions of GM-CSF. The cells are cultured for 48 hours at 37° C. in a humidified atmosphere, after which the luciferase activity is measured by the addition of 50 μl of luciferase substrate buffer (50 mM Tris-HCl, pH 7.8, 15 mM MgSO4, 33.3 mM DTT, 0.1 mM EDTA, 0.5 mM Na-luciferin, 0.5 mM ATP, 0.25 mM lithium Co A and 0.5% v/v Triton X-100). Immediately after the addition of the luciferase buffer the plate is assayed for luciferase activity. Light emissions are detected on a Victor 1420 Multi-label counter (Wallac, Turku, Finland). A titration of GM-CSF established that these cells are dependent upon this growth factor (FIG. 6). When the effect of PPS, or other sulfated polysaccharides is to be measured, the wells also contain various concentrations of these molecules as well as the GM-CSF.

[1] = biological target: recombinant human IL-2 (rhIL-2) (Homo sapiens, UniProt P60568); test: IL-2 dependent CTL-Luc cell proliferation; type: cell-based
From the text: The murine cytotoxic T lymphocytic line (CTLL) is a subclone of T cells derived from a C57bl/6 mouse. The cells require interleukin-2 (IL-2) for growth and are used to assay for its presence in conditioned media. The cells are responsive to both murine and human IL-2. CTLL cells have been transfected with the firefly luciferase gene contained in the expression vector, pPGK-puromycin-luciferase (Coombe et al, 1998, supra). The positive transfectants are cloned to produce a line with good luciferase expression and these cells are called CTL-Luc. The proliferation assays are carried out in 96-well microplates suitable for such assays (Falcon). […] The cells are counted with a Coulter Z2 Particle Counter and Size Analyzer (Coulter Electronics, England) and routinely 1.6×10^4 cells are added to microplate wells that contain either no recombinant human IL-2 (rhIL-2) (negative control) or various dilutions of rhIL-2. When the effect of PPS, or other sulfated polysaccharides is to be measured, the wells also contain various concentrations of these molecules.
The CTL-Luc cells proliferate for 24 hours at 37° C. in a humidified atmosphere, after which the luciferase activity is measured by the addition of 50 μl of luciferase substrate buffer (50 mM Tris-HCl, pH 7.8, 15 mM MgSO4, 33.3 mM DTT, 0.1 mM EDTA, 0.5 mM Na-luciferin, 0.5 mM ATP, 0.25 mM lithium Co A and 0.5% v/v Triton X-100). […]

[2] = biological target: T1, recombinant human IL-5 (rhIL-5) (Homo sapiens, UniProt P05113); test: BIAcore inhibition of IL-5 binding to immobilized heparin; conditions: BIAcore chip, titration, FIG. 3B
T1 construct: made in house; host or cells: baculovirus expression system
T1 sequence (P05113 20-134): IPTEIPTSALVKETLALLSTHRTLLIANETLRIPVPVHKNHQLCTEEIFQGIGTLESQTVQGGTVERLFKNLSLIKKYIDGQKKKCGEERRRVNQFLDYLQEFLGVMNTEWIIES
From the text: The optical phenomenon of surface plasmon resonance is used to monitor physical interactions between molecules. Passing a solution of a potential protein ligand (e.g. IL-4, IL-5 or eotaxin) over a sensor surface to which a target (e.g. heparin) is coupled monitors the real-time binding of protein ligands to the immobilized target. Detection is achieved by measuring refractive index changes very close to the sensor surface. When the refractive index is altered, the angle at which plasmon resonance occurs changes and this change directly correlates with the amount of protein interacting with the surface. A BIAcore 2000 is conveniently used. […]
Biotinylated heparin is immobilized on the biosensor chip. […] Solutions containing potential protein ligands of interest are injected over the sensor chip surface, and the binding is measured in real time (Fernig, In: Proteoglycan protocols, Ed. R. V. Iozzo, Humana Press, Totowa, N.J., USA, 2001). Baculovirus expressed recombinant human IL-4 (rhIL-4) and baculovirus expressed recombinant human IL-5 (rhIL-5) readily bind to heparin immobilized by this method (see PCT/AU2005/000551). […] Similarly, recombinant human eotaxin (CCL11) expressed in E. coli binds readily to immobilized heparin and binding is specific as there is little eotaxin binding to sensor chips lacking heparin. […]

recombinant human IL-2 (rhIL-2), sequence (P60568 21-153): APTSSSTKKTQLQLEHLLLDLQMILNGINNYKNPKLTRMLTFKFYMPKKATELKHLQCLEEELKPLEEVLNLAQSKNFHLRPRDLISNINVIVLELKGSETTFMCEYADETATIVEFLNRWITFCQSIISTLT
human GM-CSF, sequence (P04141 18-144): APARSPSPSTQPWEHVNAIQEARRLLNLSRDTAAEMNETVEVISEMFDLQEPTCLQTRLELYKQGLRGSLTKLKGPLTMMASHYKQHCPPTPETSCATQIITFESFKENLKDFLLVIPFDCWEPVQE

- Effect on TF-1.8 cell proliferation obtained with GM-CSF (human GM-CSF): no effect
- Effect on proliferation of CTL-Luc cells obtained with rhIL-2 ([1]; 10 μg/ml or 1 μg/ml, rhIL-2 1.25 ng/ml, FIG. 9): no effect
- IC50 [2]: 4 to 10 nM
Substance: Pentosan polysulfate [PPS]
- Toxicity to cytokine dependent lymphocytic cell lines ([1]; IL-2 and GM-CSF responsive cell lines, 10 and 1 μg/ml): not toxic
